From patent US5521208A, “Compositions and methods for the treatment of the metabolically impaired and for improved compliance” (Alcon Laboratories, Inc., priority 1993, dated 1996)
Where two headings read alike, the source gives them in different places.

Experiments:
[1] = Plasma pharmacokinetics in rats following a 2 mg/kg intravenous bolus injection; assay type: in vivo, male Sprague-Dawley rats; details: 2 mg/kg i.v. bolus; for AUC(0-inf): linear trapezoidal summation with extrapolation to infinity; for clearance: read-out: CLT (total plasma clearance) (converted); for half-life / k el: 2 mg/kg; for concentration at 1 h / concentration at 4 h / concentration at 8 h / concentration at 24 h / concentration at 31 h / concentration at 48 h / concentration at 72 h / concentration at 96 h / concentration at 120 h / concentration at 144 h / concentration at 168 h / concentration at 216 h: Mean ± SD (N = 3); for concentration at 96 h / concentration at 120 h / concentration at 144 h / concentration at 168 h / concentration at 216 h: ND = Not Detected (lower limit of detection 2 ng/mL)
Experimental: The pharmacokinetic properties of A(±) of Example 1 were compared with those of each enantiomer, A(+) and A(-) of Example 1. The comparison was made in rats following an intravenous bolus injection.
The test articles were formulated in a 0.1N sodium carbonate solution to yield a 2 mg/mL solution. A total of 126 male Sprague-Dawley rats weighing 200-300 g were divided into three groups of 42 rats each. The animals were offered food and water ad libitum except fasting overnight prior to and for four hours after dosing. Rats in each group received a single 2 mg/kg intravenous dose of A(+) or A(-) or A(±) via the tail vein. At the following times postdose, three rats from each group were anesthetized by carbon dioxide inhalation and plasma samples were collected from each animal: 0, 1, 4, 8, 24, 31, 48, 72, 96, 120, 144, 168, 216, and 336 hours. Plasma concentrations of each drug were determined by gas chromatographic-electron capture (GC-EC) methods known to those skilled in the art, with a lower limit of detection of 2 ng/mL. See, e.g., Park, Y. H., et al., Xenobiotica 22:543-550 (1992). The values of the elimination rate constants, α,β and γ, were obtained by linear regression analysis of the log-linear portion of the plasma concentration-time curve. These constants correspond to the initial distribution, disposition and terminal elimination phases, respectively. The α and β values were obtained by the method of residuals. The corresponding half-lives (t1/2α, t1/2β and t1/2γ) were calculated by dividing 0.693 by each respective parameter. The area under the plasma concentration versus time curve from 0 to infinity (AUC..infin.) was calculated by linear trapezoidal summation with extrapolation to infinity. Total plasma clearance CLT was calculated as dose divided by AUC..infin.. The area under the first moment curve (AUMC) is the area under the curve observed for the product of time and concentration, versus time. Apparent volume of distribution at steady state (Vss) was calculated by the product of dose and AUMC, divided by (AUC..infin.)^2.

[2] = test system: sorbitol in three tissues (lens, sciatic nerve and retina); test: In vivo inhibition of sorbitol in three tissues (lens, sciatic nerve and retina) of severely diabetic rats, dosed orally; details: for ED50: Rattus norvegicus, 192 h, once a day for eight days
Experimental: To compare the in vivo efficacy of A(±) (from Example 1) and its enantiomers, A(+) and A(-), the ED50 values (the effective dose, in mg/kg/day, to achieve 50% inhibition) for inhibition of sorbitol in three tissues (lens, sciatic nerve and retina) of severely diabetic rats, dosed orally for eight days, once a day, were recorded.

[3] = test system: sorbitol in three tissues (lens, sciatic nerve and retina); test: as above; details: Rattus norvegicus, 192 h, oral, once a day for eight days, footnote 1: ED60, read-out: ED50, Lens (footnote: for lens, ED60 value is given)
[4] = target: T1, Rat Aldose Reductase (AR) (Rattus norvegicus, UniProt P07943); test: In vitro inhibition of aldose reductase (rat lens supernatant fraction); assay type: biochemical; details: for IC50: ± SEM, n = 3-4, rat lens supernatant, pH 7.5, room temperature; for difference in activity in vitro between A(+) and A(-): Rat AR and Rat L-HDH, conclusion in words
T1 construct: rat lens supernatant fraction; from tissue; host or cells: rat lens, supernatant fraction
Excerpt: (§1) The in vitro inhibiting activity of racemic 2,7-difluoro-4-methoxyspiro[9H-fluorene-9,4'-imidazolidine]-2',5'-dione, prepared in accordance with U.S. Pat. No. 4,864,028 (hereafter referred to as "A(±)") was compared to that of the R(+) and S(-) enantiomers thereof, prepared in accordance with U.S. Pat. No. 5,151,544 (referred to hereafter as "A(+)" and "A(-)", respectively), with respect to aldose reductase and L-hexonate dehydrogenase.
(§2) The test methods used for measuring in vitro inhibition activities of these compounds toward aldose reductase and L-hexonate dehydrogenase are known. The method utilized for measuring the inhibition of aldose reductase is described in B. W. Griffin and L. G. McNatt, "Characterization of the Reduction of 3-Acetylpyridine Adenine Dinucleotide Phosphate by Benzyl Alcohol Catalyzed by Aldose Reductase", Arch. Biochem, Biophys. 246:75-81 (1986). The method utilized for measuring the inhibition of L-hexonate dehydrogenase is described in M. T. DuPriest, B. W. Griffin, D. Kuzmich, and L. G. McNatt "Spiro[fluoreneisothiazolidin]one Dioxides: New Aldose Reductase and L-Hexonate Dehydrogenase Inhibitors", J. Med Chem. 34:3229-3234 (1991). Both methods are based on detection of the rate of increase of fluorescence of NADPH (reduced form of nicotinamide adenine dinucleotide phosphate) or an analog, formed as a product of the enzymatic reaction, i.e., oxidation of an appropriate alcohol substrate by the respective oxidized pyridine species. In the assay for aldose reductase, the reaction mixture contained 50 mmol/L potassium phosphate buffer (pH 7.5), 12 mmol/L benzyl alcohol, 12 μmol/L oxidized 3-acetylpyridine adenine dinucleotide phosphate, and rat lens supernatant fraction (50-100 μg total protein) in a total volume of 1.0 mL. The assay for L-hexonate dehydrogenase consisted of the following components: 50 mmol/L potassium phosphate buffer (pH 7.5), 20 mmol/L L-gulonate, 25 μmol/L NADP+, and rat kidney supernatant fraction (50-100 µg total protein) in a total volume of 1.0 mL. The enzyme-dependent rate of formation of the reduced pyridine nucleotide was monitored with a fluorescence spectrophotometer set at excitation/emission wavelengths of 365/480 nm for the NADP+analog and 365/465 nm for NADP+; slit widths were routinely set at 10 nm. Reactions were carried out at room temperature; blank rates with one component of the reaction omitted were typically less than 10% of the rate of the complete reaction.
The IC50 values (inhibitor concentration producing 50% inhibition of the reaction under the standard assay conditions described) were computed by linearregression analysis of the linear portion of the dose-response curve for each inhibitor.

[5] = target: T2, Rat L-Hexonate Dehydrogenase (L-HDH) (Rattus norvegicus, UniProt P51635); test: In vitro inhibition of L-hexonate dehydrogenase (rat kidney supernatant fraction); assay type: biochemical; details: ± SEM, n = 2-3, pH 7.5, room temperature
T2 construct: rat kidney supernatant fraction; from tissue; host or cells: rat kidney, supernatant fraction
T2 sequence (P51635 1-325): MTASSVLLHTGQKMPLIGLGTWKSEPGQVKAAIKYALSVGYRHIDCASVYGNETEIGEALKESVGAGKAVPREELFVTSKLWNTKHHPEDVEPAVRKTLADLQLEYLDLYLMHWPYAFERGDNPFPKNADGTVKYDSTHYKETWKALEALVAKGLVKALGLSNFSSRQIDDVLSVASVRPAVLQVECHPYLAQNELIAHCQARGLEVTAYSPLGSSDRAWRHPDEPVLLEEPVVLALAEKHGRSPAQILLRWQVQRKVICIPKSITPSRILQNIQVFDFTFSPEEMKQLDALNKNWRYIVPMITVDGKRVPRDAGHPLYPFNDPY
Excerpt: as §1
as §2, with “The assay for L-hexonate dehydrogenase consisted of the following components: 50 mmol/L potassium phosphate buffer (pH 7.5), 20 mmol/L L-gulonate, 25 μmol/L NADP+, and rat kidney supernatant fraction (50-100 µg total protein) in a total volume of 1.0 mL.” left out, “Reactions were carried out at room temperature; blank rates with one component of the reaction omitted were typically less than 10% of the rate of the complete reaction.” left out

[6] = rat, plasma, iv, ND = Not Detected, read-out: t1/2γ (terminal elimination phase half-life) (converted)
[7] = rat, plasma, iv, ND = Not Detected, read-out: γ (elimination rate constant, terminal elimination phase) (converted)
[8] = rat, plasma, iv, read-out: t1/2α (initial distribution phase half-life) (converted)
[9] = rat, plasma, iv, read-out: t1/2β (disposition phase half-life) (converted)
[10] = rat, plasma, iv, read-out: α (elimination rate constant, initial distribution phase) (converted)
[11] = rat, plasma, iv, read-out: β (elimination rate constant, disposition phase) (converted)
[12] = retina sorbitol, oral, A(-) value is (est.), read-out: ED50, Retina
[13] = sciatic nerve sorbitol, oral, read-out: ED50, S. Nerve

AUMC [1] | AUC(0-inf) ([1]; rat, plasma, iv) | clearance ([1]; rat, plasma, iv) | half-life [1, 8] | half-life [1, 9] | k el [1, 10] | k el [1, 11] | concentration at 1 h ([1]; rat, plasma, iv) | concentration at 4 h ([1]; rat, plasma, iv) | concentration at 8 h ([1]; rat, plasma, iv) | concentration at 24 h ([1]; rat, plasma, iv) | concentration at 31 h ([1]; rat, plasma, iv) | concentration at 48 h ([1]; rat, plasma, iv) | concentration at 72 h ([1]; rat, plasma, iv) | IC50 [4] | IC50 [5] | Structure (SMILES) | elimination profile (in words) [1] | ED50 [2, 12] | ED50 [2, 13] | ED60 [3] | other results
854 μg/hour^2/mL | 60400 ng·h/mL | 0.552 mL/min/kg | 348 min | 480 min | 3.28e-05 s⁻¹ | 2.36e-05 s⁻¹ | 5080 ± 441 ng/mL | 3590 ± 441 ng/mL | 2420 ± 5440 ng/mL | 352 ± 34 ng/mL | 194 ± 22 ng/mL | 108 ± 27 ng/mL | 3 ± 4 ng/mL | 5.7 ± 1.7 µM | 2.2 ± 0.9 µM | COc1cc(F)cc2c1-c1ccc(F)cc1C21NC(=O)NC1=O (racemic) [A(±), 2,7-difluoro-4-methoxyspiro[9H-fluorene-9,4'-imidazolidine]-2',5'-dione] | kinetic profile similar to that of A(+) with the presence of a persistent elimination phase | 0.26 mg/kg | 0.12 mg/kg | 0.28 mg/kg/day | Vd ([1]; rat, plasma, iv, read-out: Vss (apparent volume of distribution at steady state)): 0.47 L/kg; half-life [1, 6]: 2440 min; k el [1, 7]: 4.72e-06 s⁻¹; concentration at 96 h ([1]; rat, plasma, iv): 17 ± 4 ng/mL; concentration at 120 h ([1]; rat, plasma, iv): 13 ± 3 ng/mL; concentration at 144 h ([1]; rat, plasma, iv): 11 ± 2 ng/mL; concentration at 168 h ([1]; rat, plasma, iv): 5 ± 2 ng/mL; concentration at 216 h ([1]; rat, plasma, iv): 2 ± 1 ng/mL; activity relative to A(+) ([2]; sorbitol inhibition in vivo, diabetic rats): about 50%
965 μg/hour^2/mL | 54400 ng·h/mL | 0.612 mL/min/kg | 186 min | 870 min | 6.17e-05 s⁻¹ | 1.33e-05 s⁻¹ | 2970 ± 679 ng/mL | 2360 ± 456 ng/mL | 2360 ± 281 ng/mL | 486 ± 170 ng/mL | 382 ± 49 ng/mL | 162 ± 32 ng/mL | 67 ± 15 ng/mL | 5.5 ± 0.2 µM | 3 ± 0.4 µM | COc1cc(F)cc2c1-c1ccc(F)cc1[C@@]21NC(=O)NC1=O [A(+), 2,7-difluoro-4-methoxyspiro[9H-fluorene-9,4'-imidazolidine]-2',5'-dione] | triexponential elimination profile with an initial distribution phase, a disposition phase due to metabolism, and a slow terminal elimination phase | 0.15 mg/kg | 0.08 mg/kg | 0.15 mg/kg/day | half-life [1, 6]: 2240 min; k el [1, 7]: 5e-06 s⁻¹; concentration at 96 h ([1]; rat, plasma, iv): 33 ± 11 ng/mL; concentration at 120 h ([1]; rat, plasma, iv): 11 ± 4 ng/mL; concentration at 144 h ([1]; rat, plasma, iv): 9 ± 1 ng/mL; concentration at 168 h ([1]; rat, plasma, iv): 5 ± 3 ng/mL; concentration at 216 h ([1]; rat, plasma, iv): 2 ± 1 ng/mL; difference in activity in vitro between A(+) and A(-) [4]: no significant difference in activity in vitro
402 μg/hour^2/mL | 63000 ng·h/mL | 0.528 mL/min/kg | 258 min | 510 min | 4.53e-05 s⁻¹ | 2.25e-05 s⁻¹ | 7330 ± 220 ng/mL | 3800 ± 975 ng/mL | 2780 ± 449 ng/mL | 140 ± 17 ng/mL | 127 ± 36 ng/mL | 23 ± 8 ng/mL | 4 ± 3 ng/mL | 5.9 ± 0.3 µM | 3 ± 0.4 µM | COc1cc(F)cc2c1-c1ccc(F)cc1[C@]21NC(=O)NC1=O [A(-), 2,7-difluoro-4-methoxyspiro[9H-fluorene-9,4'-imidazolidine]-2',5'-dione] | lacks a slow terminal elimination phase | 2 to 3 mg/kg | 1 mg/kg | 1.52 mg/kg/day | volume of distribution (in words) ([1]; compared with A(+)): significantly lower volume of distribution; factor by which less active than A(+) ([2]; in all tissues (lens, sciatic nerve, retina)): ≥ 10; maximum inhibition achieved at the highest dose ([2]; lens sorbitol, highest dose (1.5 mg/kg/day), oral, eight days): 40%; difference in activity in vitro between A(+) and A(-) [4]: no significant difference in activity in vitro
